We go through 19 compounds from the supplement of paper PMC4862054.

Common to all, as to assay: normalised viability (% of control), CellTiter-Blue; higher = more viable cells (about 100 = DMSO control)
What all share (conditions): incubation time: 72 h

For experiment [1], the system named is CAL-148. How it is done:
(§1)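 DSRT, CellTiter-Blue viability, 72 h incubation. Signal is normalised to DMSO and benzethonium chloride controls. Value is the normalised response at dose 6.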

The subject of experiment [2] is HDQ-P1. The procedure:
as §1

In experiment [3] the test system is DU-4475. The procedure:
as §1

Experiment [4] concerns CAL-85-1. How it is done: as §1
The subject of experiment [5] is MDA-MB-453. The procedure: as §1
The test system of experiment [6] is CAL-51. How it is done:
as §1

In experiment [7] the test system is CAL-148. How it is done: (§2)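 DSRT, CellTiter-Blue viability, 72 h incubation. Signal is normalised to DMSO and benzethonium chloride controls. Value is the normalised response at dose 7.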
The source holds these as a separate data set.

For experiment [8], the system named is HDQ-P1. The procedure: as §2
This is another data set of the same source.

Experiment [9] relates to DU-4475. The procedure: as §2
The source holds these as a separate data set.

The test system of experiment [10] is CAL-85-1. The procedure: as §2
This is another data set of the same source.

Experiment [11] deals with MDA-MB-453. The procedure:
as §2
This is another data set of the same source.

The subject of experiment [12] is CAL-51. How it is done:
as §2
This is another data set of the same source.

The test system of experiment [13] is CAL-148. The procedure:
(§3)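 DSRT, CellTiter-Blue viability, 72 h incubation. Signal is normalised to DMSO and benzethonium chloride controls. Value is the normalised response at dose 8.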
This is another data set of the same source.

The test system of experiment [14] is HDQ-P1. The procedure:
as §3
The source holds these as a separate data set.

The test system of experiment [15] is DU-4475. The procedure:
as §3
The source holds these as a separate data set.

In experiment [16] the test system is CAL-85-1. The procedure:
as §3
This is another data set of the same source.

In experiment [17] the test system is MDA-MB-453. The procedure: as §3
This is another data set of the same source.

The subject of experiment [18] is CAL-51. How it is done: as §3
The source holds these as a separate data set.

As to `O=C1CN2Cc3c(ccc(Cl)c3Cl)N=C2N1` [Anagrelide] (300 nM), the normalised viability with CAL-148 [1] turned out to be 107%; in the experiment on HDQ-P1 [2], 80.3%; in the experiment on DU-4475 [3] it was 94.7%; in the experiment with CAL-85-1 [4] it was 94.4%; with MDA-MB-453 [5], 111%; in the experiment on CAL-51 [6], 77.6%.

Regarding `Nc1nc2[nH]cnc2c(=S)[nH]1` [Thioguanine] (300 nM), the normalised viability turned out to be 99% in the experiment with CAL-148 [1]; 75.6% with HDQ-P1 [2]; 100% with DU-4475 [3]; 93.3% with CAL-85-1 [4]; 107% in the experiment on MDA-MB-453 [5]; 102% with CAL-51 [6].

With `Cn1cc(C2=Nc3cc(NC(=O)C(N)C4CCCCC4)cc4c3C2=CNNC4=O)cn1` (centres undefined) (300 nM), the normalised viability in the experiment with CAL-148 [1] worked out at 84%; with HDQ-P1 [2] it was 58.7%; in the experiment with DU-4475 [3] it was 84.3%; in the experiment on CAL-85-1 [4], 66.1%; with MDA-MB-453 [5], 34.9%; in the experiment with CAL-51 [6], 93.9%.

Consider `O=P(O)(O)C(O)(Cn1ccnc1)P(=O)(O)O` [Zoledronic acid] (1000 nM), for which the normalised viability is 92.5% in the experiment on CAL-148 [7]; 95.7% in the experiment with HDQ-P1 [8]; 120% in the experiment on DU-4475 [9]; 88.4% with CAL-85-1 [10]; 86.8% in the experiment on MDA-MB-453 [11]; 101% with CAL-51 [12].

As to `C[C@]1(O)C[C@@H](c2nc(-c3ccc4ccc(-c5ccccc5)nc4c3)c3c(N)nccn32)C1` [OSI-906] (3000 nM), the normalised viability in the experiment with CAL-148 [13] came out at 95.6%; with HDQ-P1 [14] it was 50.5%; with DU-4475 [15] it was 106%; in the experiment on CAL-85-1 [16] it was 85.5%; with MDA-MB-453 [17], 73.9%; with CAL-51 [18] it was 88.3%.

In the case of `O=P(O)(O)C(O)(Cn1ccnc1)P(=O)(O)O` [Zoledronic acid] (300 nM), the normalised viability with CAL-148 [1] was 93.6%; in the experiment with HDQ-P1 [2], 68.9%; in the experiment with DU-4475 [3] it was 115%; in the experiment on CAL-85-1 [4] it was 98.4%; in the experiment on MDA-MB-453 [5], 93.7%; in the experiment with CAL-51 [6], 104%.

As for `O=P(O)(O)C(O)(Cn1ccnc1)P(=O)(O)O` [Zoledronic acid] (3000 nM), the normalised viability in the experiment with CAL-148 [13] was 90.1%; in the experiment on HDQ-P1 [14], 89.4%; with DU-4475 [15], 121%; with CAL-85-1 [16] it was 96.8%; with MDA-MB-453 [17] it was 111%; in the experiment with CAL-51 [18], 113%.

On to `CC(C)(C)c1cnc(CSc2cnc(NC(=O)C3CCNCC3)s2)o1` [SNS-032] (300 nM), for which the normalised viability in the experiment on CAL-148 [1] turned out to be 7.44%; in the experiment with HDQ-P1 [2], 10.2%; with DU-4475 [3], 27.9%; in the experiment on CAL-85-1 [4], 9.41%; with MDA-MB-453 [5], 18.9%; with CAL-51 [6], 74%.

As for `CC(=O)c1c(C)c2cnc(Nc3ccc(N4CCNCC4)cn3)nc2n(C2CCCC2)c1=O` (3000 nM), the normalised viability with CAL-148 [13] turned out to be 103%; with HDQ-P1 [14], 120%; in the experiment on DU-4475 [15] it was 102%; in the experiment on CAL-85-1 [16] it was 102%; in the experiment with MDA-MB-453 [17] it was 63.6%; in the experiment with CAL-51 [18], 69.6%.

Regarding `CC[C@@H]1C(=O)OC[C@@H]1Cc1cncn1C` [Pilocarpine] (12000 nM), the normalised viability came to 105% with CAL-148 [13]; 127% in the experiment on HDQ-P1 [14]; 88% with DU-4475 [15]; 92.5% in the experiment on CAL-85-1 [16]; 117% in the experiment on MDA-MB-453 [17]; 107% with CAL-51 [18].

`Oc1ncnc2[nH]ncc12` [Allopurinol] (3000 nM): the normalised viability with CAL-148 [13] stood at 108%; with HDQ-P1 [14], 94.6%; in the experiment on DU-4475 [15] it was 113%; in the experiment with CAL-85-1 [16] it was 103%; in the experiment on MDA-MB-453 [17] it was 108%; in the experiment with CAL-51 [18], 104%.

With `CC(=O)c1c(C)c2cnc(Nc3ccc(N4CCNCC4)cn3)nc2n(C2CCCC2)c1=O` (1000 nM), the normalised viability was determined as 107% with CAL-148 [7]; 99.5% in the experiment with HDQ-P1 [8]; 94.6% with DU-4475 [9]; 98.9% with CAL-85-1 [10]; 66.2% in the experiment on MDA-MB-453 [11]; 72.8% in the experiment with CAL-51 [12].

In the case of `O=NN(CCCl)C(=O)NCCCl` [Carmustine] (300 nM), the normalised viability was determined as 101% in the experiment with CAL-148 [1]; 79.4% in the experiment on HDQ-P1 [2]; 77.4% with DU-4475 [3]; 94.2% in the experiment with CAL-85-1 [4]; 110% in the experiment with MDA-MB-453 [5]; 108% in the experiment on CAL-51 [6].

As for `CC[C@@H]1C(=O)OC[C@@H]1Cc1cncn1C` [Pilocarpine] (1200 nM), the normalised viability in the experiment with CAL-148 [1] was 101%; in the experiment with HDQ-P1 [2], 113%; in the experiment with DU-4475 [3], 88.2%; in the experiment on CAL-85-1 [4], 100%; in the experiment on MDA-MB-453 [5] it was 105%; in the experiment with CAL-51 [6], 97.6%.

Turning to `C[C@]1(O)C[C@@H](c2nc(-c3ccc4ccc(-c5ccccc5)nc4c3)c3c(N)nccn32)C1` [OSI-906] (300 nM), the normalised viability in the experiment with CAL-148 [1] was 89.2%; with HDQ-P1 [2], 49.8%; with DU-4475 [3] it was 91.5%; in the experiment on CAL-85-1 [4], 87.2%; in the experiment on MDA-MB-453 [5] it was 87%; in the experiment on CAL-51 [6] it was 91.5%.

`C[C@]12CC[C@@H]3c4ccc(OC(=O)N(CCCl)CCCl)cc4CC[C@H]3[C@@H]1CC[C@@H]2O` [Estramustine] (297 nM): the normalised viability amounted to 97.5% with CAL-148 [13]; 93.6% with HDQ-P1 [14]; 118% with DU-4475 [15]; 86.5% in the experiment with CAL-85-1 [16]; 101% in the experiment with MDA-MB-453 [17]; 92.5% with CAL-51 [18].

For `Nc1ncn([C@@H]2O[C@H](CO)[C@@H](O)[C@H]2O)c(=O)n1` [Azacitidine] (3000 nM), the normalised viability with CAL-148 [13] was 89.5%; in the experiment with HDQ-P1 [14], 105%; in the experiment on DU-4475 [15] it was 99.7%; in the experiment with CAL-85-1 [16], 93.8%; in the experiment on MDA-MB-453 [17], 101%; in the experiment with CAL-51 [18], 109%.

Turning to `O=NN(CCCl)C(=O)NCCCl` [Carmustine] (3000 nM), the normalised viability in the experiment with CAL-148 [13] was 102%; with HDQ-P1 [14], 108%; in the experiment on DU-4475 [15], 90.5%; in the experiment on CAL-85-1 [16], 95.7%; in the experiment on MDA-MB-453 [17], 118%; in the experiment on CAL-51 [18], 102%.

`COc1cc(F)c(F)c(Nc2ccc(I)cc2F)c1NS(=O)(=O)C1(C[C@H](O)CO)CC1` [RDEA119] (3000 nM): the normalised viability in the experiment with CAL-148 [13] was 75.7%; in the experiment on HDQ-P1 [14] it was 36.1%; with DU-4475 [15], 1.46%; with CAL-85-1 [16], 33.4%; with MDA-MB-453 [17] it was 54.9%; with CAL-51 [18], 69.9%.
